Laboratory results taken from US9389235B2, “Methods of using biomarkers for predicting the outcome of an immunotherapy against cancer” (priority 2010, dated 2016).
Where two headings read alike, the source gives them in different places.

Test system: metastatic RCC patients
Type: in vivo, human
Conditions: for HR, overall survival, +CY vs −CY arm / HR (95% CI), overall survival, +CY vs −CY arm: IMA901-treated patients
Procedure: The IMA901-202 (phase II) study used univariate and multivariate analyses to identify parameters which alone or in combination serve as predictive biomarkers for the success in terms of immune response induction and prolongation of overall survival of IMA901 treatment of metastatic RCC patients.
To achieve this, around 450 parameters (patient- or tumor-related parameters as well as analytes measured in serum or urine and cellular parameters) were analyzed using pre-treatment samples of the IMA901-202 (phase II) study population. For multivariate analyses, which selected a set of several parameters, those parameters that required preparation of peripheral blood mononuclear cells (PBMCs) were not included in order to limit measurement costs in future trials. Parameters were analyzed for their association with overall survival and T-cell responses.
Thereby, the selection of purely prognostic markers, which by definition would show association with overall survival in both arms, was avoided.
All samples were collected before any therapeutic study intervention, either three days before vaccination and immediately before administration of cyclophosphamide in the +CY arm, or immediately before vaccination. Serum samples were taken using a serum/gel-[…] (Becton Dickinson, 5 ml), inverted and incubated for a minimum of 30 minutes. Tubes were centrifuged for 15 minutes at least 1200×g, and serum (approximately 2 ml) was transferred into a NUNC cryotube (3.6 ml). Cryotubes were stored immediately at <−20° C. until measurement. […] Urine was collected shortly before vaccination. For dipstick examination, only fresh urine was used. Citrated plasma for analysis of coagulation was collected approximately two weeks before vaccination. Samples were taken using a citrate-[…] and centrifuged within 30 minutes at least 1200×g at ambient temperature. Supernatant plasma was transferred into microtubes.
Biomarker measurement methods included ELISA, multiplex immunoassays, epigenetic assays, mass spectrometry, FACS analyses, routine clinical methods of haematology, clinical chemistry and urine analysis, and other methods.
The interaction of parameters with CY-pre-treatment was assessed using the Cox proportional hazards model. Candidates showing an interaction p value of <0.05 at any cutoff value that was not at the extreme ends of the distribution (i.e. selecting or de-selecting >˜5% of patients) were considered as interesting.
Moreover, to exclude parameters with significant interaction due to inverse association of cyclophosphamide pre-treatment with overall survival in the unfavorable biomarker group, an additional criterion was significant association (p<0.05) with overall survival in the positive biomarker group. A significant (p<0.05) association with overall survival in the +CY group, but not in the −CY group was considered to be an additional hint for the predictive instead of prognostic quality of a parameter.
Multivariate biomarkers were determined according to a Cox proportional hazard model, whose properties and extensions are described in the following.

## O=P1(N(CCCl)CCCl)NCCCO1 (stereo not shown) [cyclophosphamide]
CCL17/TARC-positive cyclophosphamide-pre-treated patients, IMA901 treatment (FIG. 1D)
  patients still alive at the end of the study: 75%
Biomarker ApoA1, cutoff 0.264 mg/ml
  HR, interaction of biomarker with cyclophosphamide pre-treatment (overall survival): 0.43
Biomarker CCL17/TARC, cutoff 161.99 pg/ml
  HR, interaction of biomarker with cyclophosphamide pre-treatment (overall survival): 0.26
Biomarker CXCL13/BCA-1, cutoff 64.21 pg/ml
  HR, interaction of biomarker with cyclophosphamide pre-treatment (overall survival): 0.3271
Biomarker monocytes, cutoff 7.7%
  HR, interaction of biomarker with cyclophosphamide pre-treatment (overall survival): 0.22
biomarker-negative group, ApoA1, cutoff 0.264 mg/ml
  HR, overall survival, +CY vs −CY arm: 0.84
biomarker-negative group, CCL17/TARC, cutoff 161.99 pg/ml
  HR, overall survival, +CY vs −CY arm: 0.85
biomarker-negative group, CXCL13/BCA-1, cutoff 64.21 pg/ml
  HR, overall survival, +CY vs −CY arm: 1.07
biomarker-negative group, monocytes, cutoff 7.7%
  HR, overall survival, +CY vs −CY arm: 1.31
biomarker-negative group, multivariate biomarker, cutoff 0.019076043 points
  HR (95% CI), overall survival, +CY vs −CY arm: 2.5 (0.95-6.58);
biomarker-positive group, ApoA1, cutoff 0.264 mg/ml
  HR, overall survival, +CY vs −CY arm: 0.36
biomarker-positive group, CCL17/TARC, cutoff 161.99 pg/ml
  HR, overall survival, +CY vs −CY arm: 0.22
biomarker-positive group, CXCL13/BCA-1, cutoff 64.21 pg/ml
  HR, overall survival, +CY vs −CY arm: 0.35
biomarker-positive group, monocytes, cutoff 7.7%
  HR, overall survival, +CY vs −CY arm: 0.29
biomarker-positive group, multivariate biomarker, cutoff 0.019076043 points
  HR (95% CI), overall survival, +CY vs −CY arm: 0.08 (0.02-0.38);
Multivariate biomarker, cutoff 0.019076043 points
  HR (95% CI), interaction of multivariate biomarker with cyclophosphamide pre-treatment (overall survival): 0.032 (0.0055-0.1863);
